From patent publication US8410107B2, “N-pyridin-3-yl or N-pyrazin-2-yl carboxamides” (Hoffmann-La Roche Inc., priority 2010, dated 2013)

Experiments:
human CB1 receptor = target: T1, human CB1 receptor (Homo sapiens, UniProt P21554); assay: CB1 receptor affinity ([3H]-CP-55,940 displacement, HEK cell membranes); type: binding; conditions: displacement of radioligand [3H]-CP-55,940
T1 construct: expressed in transfected cells; host or cells: human embryonic kidney (HEK) cells, Semliki Forest Virus system, membrane preparations
Method: (§1) The affinity of the compounds of the invention for cannabinoid receptors was determined using membrane preparations of human embryonic kidney (HEK) cells in which the human CB1 receptor is transiently transfected using a Semliki Forest Virus system in conjunction with [3H]-CP-55,940 as radioligand. After incubation of freshly prepared cell membrane preparation with the [^3H]-ligand, with or without addition of compounds of the invention, separation of bound and free ligand was performed by filtration over glass fiber filters. Radioactivity on the filter was measured by scintillation counting.
(§2) The ability of the compounds to displace the radioligand [^3H]-CP-55,940 was measured at a concentration of 10 μM and values provided as [% inhibition @ 10 μM] both for the CB1 and CB2 receptor assay, The lower % inhibition is, the lower the likelihood of side effects based on CB1 or CB2 receptor inhibition is.

ABCA1 protein = assay: Detection of upregulation of ABCA1 protein in cells (ApoA-I binding, high content image analysis); type: cell-based; conditions: THP-1 macrophage cells; for % increase of ABCA1 at 3 μM: 24 hrs with compound; for EC50: ABCA1 protein increasing efficacy
Method: The ability of compounds of the invention to increase the level of ABCA1 protein is determined in replicate cultures of THP-1 macrophage cells in 96-well microplates. Cells are plated at an initial density of 100,000 cells/well in 100 μl medium and differentiated to adherent macrophages with the addition of PMA (100 nM) for 68 hrs in 10% fetal bovine serum, 3 μl/L of b-mercaptoethanol, RPMI-1640 medium. Then, cells are incubated with RPMI-1640 medium containing 1% FCS, 25 μg/ml acetylated LDL, for 24 hours at 37°. Following incubation with acetylated LDL, cells are washed twice with 50 μl PBS and incubated with 100 μl of RPMI-1640 medium containing the compound of interest solubilized in DMSO for an additional 24 hrs. The final DMSO concentration in presence of cells is maintained at 0.5%. ApoA-I binding assay using High Content Image Analysis is initiated by replacing with fresh medium, RPMI without Phenol Red, 0.2% BSA containing AlexaFluor®647 labeled ApoA-I for 2 h/37° C./5% CO2. Then, cells are fixed with 4% Formaldehyde inPBS (15 min, RT). Following Nuclei are stained with Hoechst solution (3 μM PBS) and Cytoplasm with Cell Mask Blue (2 μg/ml PBS), 15 min, RT. Finally the stained cells are fixed with a second round of formaldehyde treatment. Fixed stained cells are washed and kept in PBS at 4° C. and can be read immediately until one month after preparation.
The Alexa Fluor 647-labeled Apolipoprotein A-I (20 nM) was prepared as follows: Human recombinant Apolipoprotein A-I (ApoA-I) was exchanged to a buffer of 0.02 M NaHCO3 at pH 8.2 on an NAP desalting column (GE Healthcare) and brought to a concentration to 40 μM (1.13 mg/ml) by adjustment with the same buffer. The ApoA-I was fluorescently labeled by incubation with Alexa Fluor carboxylic acid succimidyl ester. (Alexa Fluor 647, Invitrogen A-20006) at a 2:1 molar ratio (Alexa to ApoA-I) for 1 h under shaking at RT. The remaining unconjugated label was removed by buffer exchange to 0.02M NaHCO3 at pH 8.2.
Imaging and data collection were performed on an OPERA confocal microplate imaging reader using a 20× water immersion objective and UV360 or 405 laser to identify the cell nuclei and a 635 laser to identify the fluorescent ApoA-I. Eight fields of view are captured per well. Image capture and analysis was performed with the Acapella software. Background fluorescence detected in control wells without ApoA-I was subtracted.
Using XLfit3 program (ID Business Solutions Ltd. UK), the model 205 for Dose Response One Site is used to calculate the EC50 values. The compounds of the present invention increase the level of ABCA1 protein by more than 45% at a concentration of 3 μM. […] Even more preferably, the compounds of the present invention have EC50 values in a range of 0.1 μM to 3 μM.

human CB2 receptor = target: T2, human CB2 receptor (Homo sapiens, UniProt P34972); assay: CB2 receptor affinity ([3H]-CP-55,940 displacement, HEK cell membranes); type: binding; conditions: displacement of radioligand [3H]-CP-55,940
T2 construct: expressed in transfected cells; host or cells: human embryonic kidney (HEK) cells, Semliki Forest Virus system, membrane preparations
Method: as §1, with “cannabinoid CB2” for “cannabinoid”, “CB2” for “CB1”, “[^3H]-CP-55,940” for “[3H]-CP-55,940”
as §2

T1 sequence (P21554 whole entry): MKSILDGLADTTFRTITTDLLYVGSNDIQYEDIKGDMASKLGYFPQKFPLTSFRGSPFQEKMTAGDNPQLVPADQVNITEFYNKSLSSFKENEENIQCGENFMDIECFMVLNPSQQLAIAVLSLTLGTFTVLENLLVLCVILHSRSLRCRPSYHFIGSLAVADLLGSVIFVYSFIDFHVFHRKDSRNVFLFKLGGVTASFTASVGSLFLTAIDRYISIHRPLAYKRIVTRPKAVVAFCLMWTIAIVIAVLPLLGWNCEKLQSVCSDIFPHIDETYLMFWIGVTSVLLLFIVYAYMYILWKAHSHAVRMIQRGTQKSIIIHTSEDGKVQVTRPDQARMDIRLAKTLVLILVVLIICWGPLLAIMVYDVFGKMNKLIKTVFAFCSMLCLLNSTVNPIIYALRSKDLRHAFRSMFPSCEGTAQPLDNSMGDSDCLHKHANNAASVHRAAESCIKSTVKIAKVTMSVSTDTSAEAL
T2 sequence (P34972 whole entry): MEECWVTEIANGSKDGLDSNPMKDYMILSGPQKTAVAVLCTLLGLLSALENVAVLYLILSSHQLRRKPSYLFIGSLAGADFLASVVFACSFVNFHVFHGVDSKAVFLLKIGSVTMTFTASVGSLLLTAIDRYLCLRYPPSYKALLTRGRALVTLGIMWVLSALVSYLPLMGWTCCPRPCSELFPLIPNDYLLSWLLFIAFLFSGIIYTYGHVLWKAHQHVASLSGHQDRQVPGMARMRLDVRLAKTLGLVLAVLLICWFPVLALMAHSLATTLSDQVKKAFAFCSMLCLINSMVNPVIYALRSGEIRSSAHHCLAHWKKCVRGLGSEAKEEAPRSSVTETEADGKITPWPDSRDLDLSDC

inhibition at 10 µM (human CB1 receptor) [%]	inhibition at 10 µM (human CB2 receptor) [%]	Structure (SMILES)	% increase of ABCA1 at 3 μM (ABCA1 protein) [% @ 3 μM]	EC50 (ABCA1 protein) [nM]
49	15	O=C(Nc1cnc(OCC(F)(F)F)c(-c2ccc(Cl)cc2)c1)[C@H]1CCCO1 (racemic) [Example 70, (RS)-N-(5-(4-chlorophenyl)-6-(2,2,2-trifluoroethoxy)pyridin-3-yl)tetrahydrofuran-2-carboxamide]	>45	
41	4	O=C(Nc1cnc(OCC(F)(F)F)c(-c2ccc(Cl)cc2)c1)[C@H]1CCOC1 (racemic) [Example 71, (SR)-N-(5-(4-chlorophenyl)-6-(2,2,2-trifluoroethoxy)pyridin-3-yl)-tetrahydrofuran-3-carboxamide]	>45	
45	9.2	CCCCC(=O)Nc1cnc(OCC(F)(F)F)c(-c2ccc(Cl)cc2)c1 [Example 1, pentanoic acid[5-(4-chloro-phenyl)-6-(2,2,2-trifluoro-ethoxy)-pyridin-3-yl]-amide]	>45	
33	4.9	O=C(Nc1cnc(OCC(F)(F)F)c(-c2ccc(Cl)cc2)c1)c1ccccc1 [Example 2, N-[5-(4-chloro-phenyl)-6-(2,2,2-trifluoro-ethoxy)-pyridin-3-yl]-benzamide]		2690
29	8	O=C(Nc1cnc(OCC(F)(F)F)c(-c2ccc(Cl)cc2)c1)c1cccnc1 [Example 3, N-[5-(4-chloro-phenyl)-6-(2,2,2-trifluoro-ethoxy)-pyridin-3-yl]-nicotinamide]		2280
36	1.9	O=C(Nc1cnc(OCC(F)(F)F)c(-c2ccc(Cl)cc2)c1)c1ccncc1 [Example 4, N-[5-(4-chloro-phenyl)-6-(2,2,2-trifluoro-ethoxy)-pyridin-3-yl]-isonicotinamide]	>45	
19	-5.4	CC(=O)Nc1cnc(OCC(F)(F)F)c(-c2ccc(Cl)cc2)c1 [Example 5, N-[5-(4-chloro-phenyl)-6-(2,2,2-trifluoro-ethoxy)-pyridin-3-yl]-acetamide]	>45	
47	11	CCCC(=O)Nc1cnc(OCC(F)(F)F)c(-c2ccc(Cl)cc2)c1 [Example 6, N-[5-(4-Chloro-phenyl)-6-(2,2,2-trifluoro-ethoxy)-pyridin-3-yl]-butyramide]	>45	
13	1.2	O=C(Nc1cnc(OCC(F)(F)F)c(-c2ccc(Cl)cc2)c1)c1ccccn1 [Example 7, pyridine-2-carboxylic acid[5-(4-chloro-phenyl)-6-(2,2,2-trifluoro-ethoxy)-pyridin-3-yl]-amide]	>45	
52	15	O=C(Nc1cnc(OCC2CC2)c(-c2ccc(Cl)cc2)c1)c1ccccc1 [Example 8, N-[5-(4-chloro-phenyl)-6-cyclopropylmethoxy-pyridin-3-yl]-benzamide]		2770
24	9.6	CC(=O)Nc1cnc(OCC2CC2)c(-c2ccc(Cl)cc2)c1 [Example 9, N-[5-(4-chloro-phenyl)-6-cyclopropylmethoxy-pyridin-3-yl]-acetamide]	>45	
36	28	O=C(Nc1cnc(OCC2CC2)c(-c2ccc(Cl)cc2)c1)c1cccnc1 [Example 10, N-[5-(4-chloro-phenyl)-6-cyclopropylmethoxy-pyridin-3-yl]-nicotinamide]		6510
25	-1.2	O=C(Nc1cnc(OCC2CC2)c(-c2ccc(Cl)cc2)c1)c1ccncc1 [Example 11, N-[5-(4-chloro-phenyl)-6-cyclopropylmethoxy-pyridin-3-yl]-isonicotinamide]	>45	
22	4	O=C(Nc1cnc(OCC(F)(F)F)c(-c2ccc(Cl)cc2)c1)c1cnccn1 [Example 12, pyrazine-2-carboxylic acid[5-(4-chloro-phenyl)-6-(2,2,2-trifluoro-ethoxy)-pyridin-3-yl]-amide]	>45	
16	3	Cc1cc(C(=O)Nc2cnc(OCC(F)(F)F)c(-c3ccc(Cl)cc3)c2)n(C)n1 [Example 13, 2,5-dimethyl-2H-pyrazole-3-carboxylic acid[5-(4-chloro-phenyl)-6-(2,2,2-trifluoro-ethoxy)-pyridin-3-yl]-amide]	>45	
38	10	Cc1nocc1C(=O)Nc1cnc(OCC(F)(F)F)c(-c2ccc(Cl)cc2)c1 [Example 14, 3-methyl-isoxazole-4-carboxylic acid[5-(4-chloro-phenyl)-6-(2,2,2-trifluoro-ethoxy)-pyridin-3-yl]-amide]	>45	
27	2	Cn1ccc(C(=O)Nc2cnc(OCC(F)(F)F)c(-c3ccc(Cl)cc3)c2)n1 [Example 15, 1-methyl-1H-pyrazole-3-carboxylic acid[5-(4-chloro-phenyl)-6-(2,2,2-trifluoro-ethoxy)-pyridin-3-yl]-amide]	>45	
34	-1	Cc1cc(C(=O)Nc2cnc(OCC(F)(F)F)c(-c3ccc(Cl)cc3)c2)no1 [Example 16, 5-methyl-3-isoxazolecarboxylic acid[5-(4-chloro-phenyl)-6-(2,2,2-trifluoro-ethoxy)-pyridin-3-yl]-amide]		6050
16	-3	O=C(Nc1cnc(OCC(F)(F)F)c(-c2ccc(Cl)cc2)c1)c1cccnn1 [Example 17, 3-pyridazinecarboxylic acid[5-(4-chloro-phenyl)-6-(2,2,2-trifluoro-ethoxy)-pyridin-3-yl]-amide]		2310
37	3	Cc1cnccc1C(=O)Nc1cnc(OCC(F)(F)F)c(-c2ccc(Cl)cc2)c1 [Example 18, N-[5-(4-chloro-phenyl)-6-(2,2,2-trifluoro-ethoxy)-pyridin-3-yl]-3-methyl-4-pyridinecarboxylic acid amide]	>45	
25	-10	O=C(Nc1cnc(OCC(F)(F)F)c(-c2ccc(Cl)cc2)c1)c1cncnc1 [Example 19, 5-pyrimidinecarboxylic acid[5-(4-chloro-phenyl)-6-(2,2,2-trifluoro-ethoxy)-pyridin-3-yl]-amide]		1390
